Results reported in patent US20230167155A1, “COMPOSITIONS AND METHODS” (KING'S COLLEGE LONDON, priority 2020, published 2023).

What was measured:
ApoE−/− mice [1] = experiment: Regression of established atheroma, weekly IV injections (Oil Red O en face, aortic root); format: in vivo, mouse
Experimental: For all atherosclerosis work, male ApoE−/− mice, from the age of 6-weeks, were fed with a high fat diet (HFD) consisting 35 kcal % fat, 1.25% cholesterol, and 0.5% cholic acid (Special Diet Services, Essex UK). Aortas were transplanted 2 weeks after starting the HFD, using a sleeve anastomosis technique described previously^11. Briefly, a 5 mm of the segment of the infrarenal donor aorta, flushed with 300 μl of saline containing 50 U of heparin, was transplanted into ApoE−/− recipient abdomen aortas (N=6 per group). Blood flow was confirmed by direct inspection after removal of the clamps. Mice were fed a HFD for 6-12 weeks post-transplantation before the experiment was terminated (Suppl FIG. 1A). To assess prevention of atheroma, mice (n=6 per group) received a single injection of PTL060 or controls by tail vein, and the experiments terminated 1-3 weeks later (Suppl FIG. 1B). For regression experiments, baseline groups (n=6) were fed a HFD to the age of 22 weeks before the mice were sacrificed. Experimental or control groups (n=3-6 per group) received weekly injections by tail vein for 3-6 weeks, beginning at age of 22 weeks before the experiments were terminated when mice were 25-28 weeks old (Suppl FIG. 1C).
Atherosclerotic lesions were evaluated as previously described^11. Simply, the entire length of the aorta was perfused with PBS, dissected using a dissecting microscope, longitudinally opened and stained with Oil Red O (ORO) solution (Sigma, UK) for 30 minutes, before being photographed with a digital camera (DSC-W320, Sony, Japan). The total aortic area and lesional area were measured by using Image J. Aortas from every animal were assessed. To assess lesions in the aortic sinus, hearts were embedded in paraffin, sectioned through the aortic root and incubated with elastin/van Gieson stain using the Accustain™ Elastin Stain kit (Sigma). Sections were examined on an Olympus U-ULH optical microscope (Olympus Optical Co. Ltd, Tokyo, Japan). Atheromatous lesional and total aortic root area was determined using Image-Pro Plus TM software version 4.0 (Media Cybernetics, Silver Spring, USA). At least three random sections were examined from each mouse in all groups.

TNFα, IFNγ, MIF and CCL2 = experiment: Plasma cytokines and chemokines by ELISA; format: in vivo, mouse; settings: HFD, weekly IV for 6 weeks, equimolar to PTL060 10 μg/g
Experimental: Anticoagulated whole blood (EDTA 30 mM pH8) was separated into plasma and cells by centrifugation (14,000 g for 10 mins). Plasma TNFα, IFN-γ, MIF and CCL2 were detected using separate specific ELISA kits (R&D Systems, Abingdon, UK) according to the manufacturers' instructions. Total cholesterol, high-density lipoprotein and low-density lipoprotein were determined using kits from Cell Biolabs, and Tryglycerides with a kit from Abcam, (both Cambridge, UK) according to the manufacturer's protocol. Thrombin clotting times were measured in 3.2% trisodium citrated plasma according to the protocol of Ignjatovic^16. Briefly, 100 μl mouse plasma was incubated with 2.5 U of human thrombin in a total volume of 300 μl (Enzyme Research Laboratories (ERL), Swansea, UK) at 37° C., and the time for a clot to form was measured (n=6 per group). For some experiments plasma was further centrifuged (20,000 g for 10 mins) to minimise the presence of extracellular vesicles.
FIG. 18: Illustrating the systemic proinflammatory state that accompanies development of atherosclerosis in ApoE^−/− mice fed a high fat diet, and the impact of PTL032 on that inflammation, compared to PTL060 and controls. Cytokines (interferon-gamma TNFalpha) and chemokines (macrophage migration inhibitory factor, MIF and CCL2) measured by ELISA of plasma samples harvested from mice at the times indicated. HFD=high fat diet. […]

[2] = system: patients with stable atherosclerotic cardiovascular disease; settings: addition to aspirin; cited from earlier work
ApoE−/− mice [3] = settings: 22 week old animals, daily treatment for 6 weeks, clinically relevant doses; cited from earlier work
PAR1 = biological target: T1, PAR1 (Homo sapiens, UniProt P25116); set-up: host or cells: patients; settings: patients with stable atherosclerosis; cited from earlier work
T1 sequence (P25116 22-425): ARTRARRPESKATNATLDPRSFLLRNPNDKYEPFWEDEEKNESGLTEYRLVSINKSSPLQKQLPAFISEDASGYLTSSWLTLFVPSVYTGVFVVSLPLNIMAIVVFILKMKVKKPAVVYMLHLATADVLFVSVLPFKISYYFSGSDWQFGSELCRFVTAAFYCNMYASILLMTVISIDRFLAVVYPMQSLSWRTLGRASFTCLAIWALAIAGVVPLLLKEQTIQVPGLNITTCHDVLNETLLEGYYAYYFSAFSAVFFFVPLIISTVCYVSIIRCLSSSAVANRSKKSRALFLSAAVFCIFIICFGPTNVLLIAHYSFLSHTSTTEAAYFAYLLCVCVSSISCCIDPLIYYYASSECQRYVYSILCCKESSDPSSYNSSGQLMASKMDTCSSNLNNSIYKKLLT

MIF = experiment: Vessel wall chemokine (MIF, CCL2) expression after IV injection, immunofluorescence; format: in vivo, mouse; settings: single IV injection, PTL060 or equimolar dose
Experimental: Immunohistology of frozen cross sections were prepared and examined as previously described^11. Briefly, isolated tissues were snap-frozen and embedded in OCT compound (VWR International, Dorset, UK), sectioned at 5 μm thickness and fixed in methanol at −20° C. Frozen sections were immersed in 1% bovine serum albumin-phosphate-buffered saline (BSA-PBS) for 30 minutes and then incubated overnight at 4° C. with one or more of the following antibodies: rabbit polyclonal antibody to CD68, iNOs, CD206, TNFα, MIF, CCR7 ABCA1 (all from Abcam, Cambridge, UK), or hirudin (Biobyt, Cambridge, UK) or CCL2 (Lifespan BioScience, Inc., WA 98121, USA); goat polyclonal antibody to CD31 (Santa Cruz Biotechnology, Texas 75220, USA); rat anti-mouse CD68, CD11b (Serotec, Oxford, United Kingdom), CD31, IFNγ (BD Bioscience Pharmingen, Oxford, United Kingdom), Ly-6G (BioLegend, London, UK), IL-10 (Abcam) or biotinylated anti-HLL (RICS-2)^14; mouse anti-CCR2 (Abcam). […] Quantification of staining was achieved by expressing the area of positive staining as a ratio of the total lesion area, calculated using Image-Pro Plus TM, version 4.0. All quantification was performed by members of the team blinded to the identity of the sections. […] To detect macrophage-derived foam cells, frozen sections of aortic sinus were analysed by a combination of ORO staining and CD68 immunostaining. […]

**Q.** Which results are given for “[Myr2]-KSSKSPSKKDDKKPGDC(S—S—CH2-CH2-Phe-Cha-Cha-Arg-Lys-Pro-Asn-Asp-Lys-NH2)NH2 [PTL032]”?
**A.** animals with atherosclerotic plaques essentially completely eliminated (ApoE−/− mice [1]; HFD 16 weeks, then PTL032 7 μg/g weekly IV for 6 weeks): 4 out of the 6; regression of atherosclerosis in direct comparison with PTL060 (ApoE−/− mice [1]; equimolar doses (PTL032 7 μg/g, PTL060 10 μg/g), weekly IV 6 weeks): considerably better regression of atherosclerosis than PTL060; plasma chemokines and cytokines (IFNγ, TNFα, MIF, CCL2) (TNFα, IFNγ, MIF and CCL2): suppression of important chemokines and cytokines, almost back to levels seen in very young mice

**Q.** With O=C(NC[C@H]1CN(c2ccc(N3CCOCC3=O)cc2)C(=O)O1)c1ccc(Cl)s1 [rivaroxaban] as the compound, how does the “deaths, strokes and myocardial infarction” value [2] read?
**A.** Its value is “fewer deaths, strokes and myocardial infarction”.

**Q.** And the “atheroma burden reduced by” value (ApoE−/− mice [3])?
**A.** Its value is 25%.

**Q.** With CCOC(=O)N[C@@H]1CC[C@@H]2[C@@H](C1)C[C@H]1C(=O)O[C@H](C)[C@H]1[C@H]2/C=C/c1ccc(-c2cccc(F)c2)cn1 [vorapaxar] as the compound, how does the “risk of myocardial infarction” value (PAR1) read?
**A.** The value was “reduce the risk of myocardial infarction”.

**Q.** For bivalirudin, which “suppression of vessel wall chemokine (MIF) expression” value (MIF) is on record?
**A.** The value was “not”.

**Q.** And the “atheroma burden after weekly injections” value (ApoE−/− mice [1]; HFD from age 6 to 22 weeks, then weekly IV for 6 weeks, PTL060 10 μg/g or equimolar doses of controls)?
**A.** Its value is “developed increasing atheroma burden equivalent to that seen in saline control mice”.
